Tests used:
[1] = Mean residence time (0 to infinity) in Sprague-Dawley rat treated with luteolin at 6.5 mg/kg, iv; assay type: ADME, organism-based; parameters: dose 6.5 mg/kg, route intravenous; conditions: in vivo
[2] = Cmax in Sprague-Dawley rat treated with luteolin at 6.5 mg/kg, iv; assay type: ADME, organism-based; parameters: dose 6.5 mg/kg, route intravenous; conditions: in vivo
Lung [3] = test: Drug metabolism in Sprague-Dawley rat lung homogenate treated with luteolin at 20 uM after 20 to 60 mins; assay type: ADME, tissue-based; conditions: tissue homogenate
[4] = Drug metabolism in Sprague-Dawley rat erythrocytes homogenate treated with luteolin at 20 uM after 20 to 60 mins in presence of COMT inhibitor entacapone; assay type: ADME, cell-based; conditions: erythrocyte
Lung [5] = test: Drug metabolism in Sprague-Dawley rat lung homogenate treated with luteolin at 20 uM after 20 to 60 mins in presence of COMT inhibitor entacapone; assay type: ADME, tissue-based; conditions: tissue homogenate
[6] = AUC (0 to infinity) in Sprague-Dawley rat treated with luteolin at 6.5 mg/kg, iv; assay type: ADME, organism-based; parameters: time infinity, dose 6.5 mg/kg, route intravenous; conditions: plasma
Liver [7] = test: Drug metabolism in Sprague-Dawley rat liver homogenate treated with luteolin at 20 uM after 20 to 60 mins; assay type: ADME, tissue-based; conditions: tissue homogenate
[8] = Mean residence time (0 to t) in Sprague-Dawley rat treated with luteolin at 6.5 mg/kg, iv; assay type: ADME, organism-based; parameters: dose 6.5 mg/kg, route intravenous; conditions: in vivo
[9] = Drug recovery in Sprague-Dawley rat urine assessed as retention time treated with luteolin at 6.5 mg/kg, iv by reverse-phase HPLC method; assay type: ADME, organism-based; parameters: dose 6.5 mg/kg, route intravenous; conditions: in vivo
Small intestine [10] = test: Drug metabolism in Sprague-Dawley rat small intestine homogenate treated with luteolin at 20 uM after 20 to 60 mins; assay type: ADME, tissue-based; conditions: tissue homogenate
Liver [11] = test: Drug metabolism in Sprague-Dawley rat liver homogenate treated with luteolin at 20 uM after 20 to 60 mins in presence of COMT inhibitor entacapone; assay type: ADME, tissue-based; conditions: tissue homogenate
Small intestine [12] = test: Drug metabolism in Sprague-Dawley rat small intestine homogenate treated with luteolin at 20 uM after 20 to 60 mins in presence of COMT inhibitor entacapone; assay type: ADME, tissue-based; conditions: tissue homogenate
[13] = Drug excretion in Sprague-Dawley rat urine treated with luteolin at 6.5 mg/kg, iv after 24 hrs co-treated with COMT inhibitor entacapone; assay type: ADME, organism-based; parameters: dose 6.5 mg/kg, route intravenous; conditions: read-out: Drug excretion
Rattus norvegicus = test: Clearance in Sprague-Dawley rat treated with luteolin at 6.5 mg/kg, iv; assay type: ADME, organism-based; parameters: dose 6.5 mg/kg, route intravenous; conditions: in vivo
Kidney [14] = test: Drug metabolism in Sprague-Dawley rat kidney homogenate treated with luteolin at 20 uM after 20 to 60 mins in presence of COMT inhibitor entacapone; assay type: ADME, tissue-based; conditions: tissue homogenate
[15] = Drug metabolism in Sprague-Dawley rat erythrocytes homogenate treated with luteolin at 20 uM after 20 to 60 mins; assay type: ADME, cell-based; conditions: erythrocyte
Liver microsome = test: Stability in Sprague-Dawley rat liver microsomes at 10 uM after 10 to 30 mins by HPLC analysis; assay type: ADME
[16] = Drug excretion in Sprague-Dawley rat urine treated with luteolin at 6.5 mg/kg, iv after 24 hrs; assay type: ADME, organism-based; parameters: dose 6.5 mg/kg, route intravenous; conditions: read-out: Drug excretion
[17] = Half life in Sprague-Dawley rat treated with luteolin at 6.5 mg/kg, iv; assay type: ADME, organism-based; parameters: dose 6.5 mg/kg, route intravenous; conditions: in vivo
[18] = AUC (0 to t) in Sprague-Dawley rat treated with luteolin at 6.5 mg/kg, iv; assay type: ADME, organism-based; parameters: dose 6.5 mg/kg, route intravenous; conditions: plasma
[19] = Volume of distribution in Sprague-Dawley rat treated with luteolin at 6.5 mg/kg, iv; assay type: ADME, organism-based; parameters: dose 6.5 mg/kg, route intravenous; conditions: in vivo
Kidney [20] = test: Drug metabolism in Sprague-Dawley rat kidney homogenate treated with luteolin at 20 uM after 20 to 60 mins; assay type: ADME, tissue-based; conditions: tissue homogenate

MRT inf [1]: 46 min
Cmax [2]: 560 ng/mL
Drug metabolism (Lung [3]): metabolite_detected
Drug metabolism [4]: metabolite_not_detected
Drug metabolism (Lung [5]): metabolite_not_detected
AUC(0-inf) [6]: 466 ng·h/mL
Drug metabolism (Liver [7]): metabolite_detected
MRT last [8]: 35.8 min
Retention_time [9]: 30.85 min
Drug metabolism (Small intestine [10]): metabolite_detected
Drug metabolism (Liver [11]): metabolite_not_detected
Drug metabolism (Small intestine [12]): metabolite_not_detected
dose excreted at 24 h [13]: 0.254%
clearance (Rattus norvegicus): 238 mL/min/kg
Drug metabolism (Kidney [14]): metabolite_not_detected
Drug metabolism [15]: metabolite_detected
Stability (Liver microsome): Unstable
dose excreted at 24 h [16]: 1.22%
half-life [17]: 30.8 min
AUC(0-t) [18]: 427 ng·h/mL
Vd [19]: 10.3 L/kg
Drug metabolism (Kidney [20]): metabolite_detected
SMILES: COc1ccc(-c2cc(=O)c3c(O)cc(O)cc3o2)cc1O [DIOSMETIN]

Source: ChEMBL document CHEMBL3525960, “Role of catechol-O-methyltransferase in the disposition of luteolin in rats” (Drug Metab Dispos, 2011)
